# Results as given in PubChem BioAssay (NCI).
#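 48-hour exposure; five concentrations; linearly interpolated endpoints. GI50 = concentration required for 50% inhibition of growth. The concentration for full growth arrest is given as TGI.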
# What was measured:
# Test in all cases: inhibition of tumour cell growth, NCI panel, 48 h
# TK-10 renal = system: TK-10 renal
# SNB-75 CNS = system: SNB-75 CNS
# SNB-19 CNS = system: SNB-19 CNS
# SF-268 CNS = system: SF-268 CNS
# RXF 393 renal = system: RXF 393 renal
# IGROV1 ovarian = system: IGROV1 ovarian
# KM12 colon = system: KM12 colon
# MOLT-4 leukemia = system: MOLT-4 leukemia
# NCI/ADR-RES ovarian = system: NCI/ADR-RES ovarian
# 786-0 renal = system: 786-0 renal
# U251 CNS = system: U251 CNS
# A498 renal = system: A498 renal
# MDA-MB-231 breast = system: MDA-MB-231 breast
# HOP-92 NSCLC = system: HOP-92 NSCLC
# UACC-257 melanoma = system: UACC-257 melanoma
# NCI-H23 lung = system: NCI-H23 lung
# SW-620 colon = system: SW-620 colon
# SK-MEL-28 melanoma = system: SK-MEL-28 melanoma
# NCI-H522 lung = system: NCI-H522 lung
# UACC-62 melanoma = system: UACC-62 melanoma
# ACHN renal = system: ACHN renal
# SF-539 CNS = system: SF-539 CNS
# HOP-62 NSCLC = system: HOP-62 NSCLC
# SK-MEL-2 melanoma = system: SK-MEL-2 melanoma
# T-47D breast = system: T-47D breast
# A549 NSCLC = system: A549 NSCLC
# MCF7 breast = system: MCF7 breast
# UO-31 renal = system: UO-31 renal
# HCT-15 colon = system: HCT-15 colon
# SK-OV-3 ovarian = system: SK-OV-3 ovarian
# K-562 leukemia = system: K-562 leukemia
# MALME-3M melanoma = system: MALME-3M melanoma
# HT29 colon = system: HT29 colon
# CCRF-CEM leukemia = system: CCRF-CEM leukemia
# BT-549 breast = system: BT-549 breast
# HL-60(TB) leukemia = system: HL-60(TB) leukemia
# RPMI-8226 leukemia = system: RPMI-8226 leukemia
# HCT-116 colon = system: HCT-116 colon
# EKVX NSCLC = system: EKVX NSCLC
# SN12C renal = system: SN12C renal
# NCI-H460 lung = system: NCI-H460 lung
# COLO 205 colon = system: COLO 205 colon
# CAKI-1 renal = system: CAKI-1 renal
# SF-295 CNS = system: SF-295 CNS
# MDA-MB-435 = system: MDA-MB-435
# SK-MEL-5 melanoma = system: SK-MEL-5 melanoma
# HS 578T breast = system: HS 578T breast
# DU-145 prostate = system: DU-145 prostate
# LOX IMVI melanoma = system: LOX IMVI melanoma
# OVCAR-4 ovarian = system: OVCAR-4 ovarian
# OVCAR-3 ovarian = system: OVCAR-3 ovarian
# OVCAR-8 ovarian = system: OVCAR-8 ovarian
# PC-3 prostate = system: PC-3 prostate
# M14 melanoma = system: M14 melanoma
# OVCAR-5 ovarian = system: OVCAR-5 ovarian
# NCI-H226 lung = system: NCI-H226 lung
smiles,measurement,setting,value
O=C1C=Cc2cscc21,TGI,TK-10 renal,> 100 µM
same,TGI,SNB-75 CNS,> 100 µM
same,TGI,SNB-19 CNS,> 100 µM
same,TGI,SF-268 CNS,> 100 µM
same,TGI,RXF 393 renal,32.8 µM
same,TGI,IGROV1 ovarian,> 100 µM
same,TGI,KM12 colon,> 100 µM
same,TGI,MOLT-4 leukemia,37.5 µM
same,TGI,NCI/ADR-RES ovarian,> 100 µM
same,TGI,786-0 renal,31.4 µM
same,TGI,U251 CNS,> 100 µM
same,TGI,A498 renal,> 100 µM
same,TGI,MDA-MB-231 breast,80.6 µM
same,TGI,HOP-92 NSCLC,> 100 µM
same,TGI,UACC-257 melanoma,> 100 µM
same,TGI,NCI-H23 lung,> 100 µM
same,TGI,SW-620 colon,> 100 µM
same,TGI,SK-MEL-28 melanoma,> 100 µM
same,TGI,NCI-H522 lung,42.5 µM
same,TGI,UACC-62 melanoma,> 100 µM
same,TGI,ACHN renal,> 100 µM
same,TGI,SF-539 CNS,> 100 µM
same,TGI,HOP-62 NSCLC,> 100 µM
same,TGI,SK-MEL-2 melanoma,> 100 µM
same,TGI,T-47D breast,81.5 µM
same,TGI,A549 NSCLC,> 100 µM
same,TGI,MCF7 breast,68.1 µM
same,TGI,UO-31 renal,85.8 µM
same,TGI,HCT-15 colon,66.9 µM
same,TGI,SK-OV-3 ovarian,> 100 µM
same,TGI,K-562 leukemia,> 100 µM
same,TGI,MALME-3M melanoma,63.7 µM
same,TGI,HT29 colon,> 100 µM
same,TGI,CCRF-CEM leukemia,52.6 µM
same,TGI,BT-549 breast,> 100 µM
same,TGI,HL-60(TB) leukemia,> 100 µM
same,TGI,RPMI-8226 leukemia,> 100 µM
same,TGI,HCT-116 colon,29.3 µM
same,TGI,EKVX NSCLC,> 100 µM
same,TGI,SN12C renal,96.8 µM
same,TGI,NCI-H460 lung,> 100 µM
same,TGI,COLO 205 colon,> 100 µM
same,TGI,CAKI-1 renal,67 µM
same,TGI,SF-295 CNS,> 100 µM
same,TGI,MDA-MB-435,> 100 µM
same,TGI,SK-MEL-5 melanoma,> 100 µM
same,TGI,HS 578T breast,> 100 µM
same,TGI,DU-145 prostate,> 100 µM
same,TGI,LOX IMVI melanoma,> 100 µM
same,TGI,OVCAR-4 ovarian,> 100 µM
same,TGI,OVCAR-3 ovarian,47.7 µM
same,TGI,OVCAR-8 ovarian,> 100 µM
same,TGI,PC-3 prostate,> 100 µM
same,TGI,M14 melanoma,84.5 µM
CCOC(=O)c1cc(NC(=O)c2cc(NC(=O)c3cc(NC(=O)c4c(-c5ccccc5)noc4C)cn3C)cn2C)cn1C,GI50,TK-10 renal,> 100 µM
same,TGI,TK-10 renal,> 100 µM
same,GI50,SNB-75 CNS,> 100 µM
same,TGI,SNB-75 CNS,> 100 µM
same,GI50,SNB-19 CNS,> 100 µM
same,TGI,SNB-19 CNS,> 100 µM
same,GI50,SF-268 CNS,> 100 µM
same,TGI,SF-268 CNS,> 100 µM
same,GI50,RXF 393 renal,> 100 µM
same,TGI,RXF 393 renal,> 100 µM
same,GI50,IGROV1 ovarian,> 100 µM
same,TGI,IGROV1 ovarian,> 100 µM
same,GI50,KM12 colon,> 100 µM
same,TGI,KM12 colon,> 100 µM
same,GI50,MOLT-4 leukemia,8.97 µM
same,TGI,MOLT-4 leukemia,> 100 µM
same,GI50,NCI/ADR-RES ovarian,> 100 µM
same,TGI,NCI/ADR-RES ovarian,> 100 µM
same,GI50,786-0 renal,> 100 µM
same,TGI,786-0 renal,> 100 µM
same,GI50,U251 CNS,> 100 µM
same,TGI,U251 CNS,> 100 µM
same,GI50,OVCAR-5 ovarian,> 100 µM
same,TGI,OVCAR-5 ovarian,> 100 µM
same,GI50,A498 renal,> 100 µM
same,TGI,A498 renal,> 100 µM
same,GI50,MDA-MB-231 breast,35 µM
same,TGI,MDA-MB-231 breast,> 100 µM
same,GI50,HOP-92 NSCLC,0.241 µM
same,TGI,HOP-92 NSCLC,4.36 µM
same,GI50,NCI-H23 lung,> 100 µM
same,TGI,NCI-H23 lung,> 100 µM
same,GI50,NCI-H226 lung,60.3 µM
same,TGI,NCI-H226 lung,> 100 µM
same,GI50,SW-620 colon,> 100 µM
same,TGI,SW-620 colon,> 100 µM
same,GI50,SK-MEL-28 melanoma,> 100 µM
same,TGI,SK-MEL-28 melanoma,> 100 µM
same,GI50,NCI-H522 lung,> 100 µM
same,TGI,NCI-H522 lung,> 100 µM
same,GI50,UACC-62 melanoma,44.4 µM
same,TGI,UACC-62 melanoma,> 100 µM
same,GI50,ACHN renal,> 100 µM
same,TGI,ACHN renal,> 100 µM
same,GI50,SK-MEL-2 melanoma,> 100 µM
same,TGI,SK-MEL-2 melanoma,> 100 µM
same,GI50,T-47D breast,> 100 µM
same,TGI,T-47D breast,> 100 µM
same,GI50,MCF7 breast,> 100 µM
same,TGI,MCF7 breast,> 100 µM
same,GI50,UO-31 renal,> 100 µM
same,TGI,UO-31 renal,> 100 µM
same,GI50,HCT-15 colon,> 100 µM
same,TGI,HCT-15 colon,> 100 µM
same,GI50,SK-OV-3 ovarian,> 100 µM
same,TGI,SK-OV-3 ovarian,> 100 µM
same,GI50,K-562 leukemia,9.3 µM
same,TGI,K-562 leukemia,> 100 µM
same,GI50,MALME-3M melanoma,91.2 µM
same,TGI,MALME-3M melanoma,> 100 µM
same,GI50,HT29 colon,> 100 µM
same,TGI,HT29 colon,> 100 µM
same,GI50,BT-549 breast,4.37 µM
same,TGI,BT-549 breast,59.5 µM
same,GI50,HL-60(TB) leukemia,10.6 µM
same,TGI,HL-60(TB) leukemia,> 100 µM
same,GI50,SN12C renal,73.4 µM
same,TGI,SN12C renal,> 100 µM
same,GI50,NCI-H460 lung,> 100 µM
same,TGI,NCI-H460 lung,> 100 µM
same,GI50,COLO 205 colon,> 100 µM
same,TGI,COLO 205 colon,> 100 µM
same,GI50,CAKI-1 renal,> 100 µM
same,TGI,CAKI-1 renal,> 100 µM
same,GI50,SF-295 CNS,> 100 µM
same,TGI,SF-295 CNS,> 100 µM
same,GI50,MDA-MB-435,> 100 µM
same,TGI,MDA-MB-435,> 100 µM
same,GI50,SK-MEL-5 melanoma,> 100 µM
same,TGI,SK-MEL-5 melanoma,> 100 µM
same,GI50,HS 578T breast,> 100 µM
same,TGI,HS 578T breast,> 100 µM
same,GI50,DU-145 prostate,16.9 µM
same,TGI,DU-145 prostate,> 100 µM
same,GI50,LOX IMVI melanoma,> 100 µM
same,TGI,LOX IMVI melanoma,> 100 µM
same,GI50,OVCAR-4 ovarian,> 100 µM
same,TGI,OVCAR-4 ovarian,> 100 µM
same,GI50,OVCAR-3 ovarian,47.9 µM
same,TGI,OVCAR-3 ovarian,> 100 µM
same,GI50,PC-3 prostate,19.2 µM
same,TGI,PC-3 prostate,> 100 µM
same,GI50,M14 melanoma,47.1 µM
same,TGI,M14 melanoma,> 100 µM
